Results published in US6469013B2, “Therapeutic compounds” (Parker Hughes Institute, priority 1998, dated 2002).

What was measured:
BT20 (Breast Cancer) = experiment: Methylcellulose clonogenic assay; assay type: cell-based
Procedure: (§1) The antileukemic activity of compound 6 against clonogenic tumor cells was examined using a methylcellulose colony assay system (Uckun, F. M., et al., J. Exp. Med. 163: 347-368, 1986; Messinger, Y., et al., Clin Cancer Res. 4: 165-70, 1998). In brief, cells (10^5/ml in RPMI-10% FBS) were treated overnight at 37° C. with compound 6 at varying concentrations. After treatment, cells were washed twice, plated at 10^4 or 10^5 cells/ml in RPMI-10% FMS-0.9% methylcellulose in Petri dishes, and cultured for 7 days at 37° C. in a humidified 5% CO2 incubator. Subsequently, leukemic cell (or tumor cell) colonies were enumerated using an inverted phase-contrast microscope. The percent inhibition of colony formation was calculated using the following formula:
(§2) % Inhibition=1−mean number of colonies in test culture×100 mean number of colonies in control culture

DAUDI (B-ALL) = experiment: Methylcellulose clonogenic assay; assay type: cell-based
Procedure: as §1, §2

HL-60 (AML) = experiment: Methylcellulose clonogenic assay; assay type: cell-based; conditions: HL-60, 100 μM
Procedure: as §1, §2

M24-MET (Melanoma) = experiment: Methylcellulose clonogenic assay; assay type: cell-based
Procedure: as §1, §2

MOLT-3 (T-ALL) = experiment: Methylcellulose clonogenic assay; assay type: cell-based; conditions: MOLT-3, 100 μM
Procedure: as §1, §2

RAMOS (B-ALL) = experiment: Methylcellulose clonogenic assay; assay type: cell-based
Procedure: as §1, §2

[1] = system: SQ20B (Squamous Carcinoma); experiment: Methylcellulose clonogenic assay; assay type: cell-based
Procedure: as §1, §2

C57BL/6 splenocytes = experiment: Splenocyte apoptosis (TUNEL, flow cytometry); assay type: cell-based, mouse; conditions: 20 h
Procedure: C57BL/6 splenocytes (3×10^6/ml) were cultured in 24-well plate for 20 h in 500 μl of RPMI-1640 under the conditions described above. […] Apoptotic cell death was detected by TUNEL, using InSitu Cell Detection Kit, Fluorescein (Boehringer Mannheim, Indianapolis, Ind.). After the culture period, cells were washed, fixed, permeabilised and stained following manufacturer's instructions and apoptosis was analyzed by flow cytometry, using FACS Calibur (Becton Dickinson, San Jose, Calif.).

NOD females = experiment: Spontaneous diabetes in NOD females (incidence, IPGTT, insulitis); assay type: in vivo, mouse
Procedure: Mice were monitored for diabetes development by testing blood glucose from 10 wk of age by One Touch Profile diabetes tracking system, as described above.
Intraperitoneal glucose tolerance test (IPGTI) was performed in the group of non-diabetic WHI-P131-treated and vehicle-treated control NOD females on the end of experimental period (25 wk of age of NOD mice). Mice were fasted for 10 hours, and the glucose solution (1.5 g/kg body weight) was injected i.p. Before and after injection of glucose, blood samples were taken and blood glucose levels were measured (as described above) at 0, 30, 60 and 120 min time points.
The group of control and WHI-P131-treated non-diabetic NOD females was sacrificed at the end of experimental period, at 25 wksof age, and characteristic histopathologic lesion of islets (insulitis) was evaluated in each mouse scoring at least 25 islets per mouse. Briefly, pancreas was removed, fixed in 10% formalin, parafin embedded, cut and stained with hematoxylin and eosin for light microscopic examinations.

NOD-scid/scid females = experiment: Adoptive transfer of diabetes; assay type: in vivo, mouse; conditions: 50 mg/kg daily, up to week 5 post transfer
Procedure: Single-cell suspensions of splenic leucocytes pooled from 8-10 diabetic NOD females were prepared by passage through Nitex 110 mesh, and red blood cells were lysed in 10× Gey's solution. Aliquots of 1×10^7 splenocytes were adoptively transferred intravenously into 4-week-old NOD/Lt-scid/scid females (The Jackson Laboratory, Bar Harbor, Me.). […] Mice were monitored for diabetes development by testing urinary glucose every week from second week after the transfer by Chemstrip uGK strips (Boehringer Mannheim, Indianapolis, Ind.). Mice with glycosuria over 500 mg/dl (+++) on consecutive weekly tests were considered diabetic, with the first detection of chronic glycosuria taken as the date of IDDM onset.

C57BL/6 recipients = experiment: Syngeneic islet graft function under long-term treatment; assay type: in vivo, mouse; conditions: 50 mg/kg
Procedure: Mice were fasted for 10 hours, and the glucose solution (1.5 g/kg body weight) was injected i.p. Before and after injection of glucose, blood samples were taken and blood glucose levels were measured (as described above) at 0, 30, 60 and 120 min time points.
The vehicle control—(n=3) and WHI-P131-treated C57BL/6 recipients (n=5) of islet allograft were sacrificed on day 14 post transplantation; Jak3 recipients (n=6) were sacrificed on day 100 post transplantation; the C57BL/6 recipients of syngeneic islets—vehicle control—(n=4) and WHI-P131-treated (n=5) were sacrificed on day 180 post transplantation. Kidneys bearing grafts were removed, fixed in 10% formalin and embedded in paraffin. Serial sections of graft area were cut and stained with hematoxylin and eosin. For insulin staining, sections were stained by immunoperoxidase method using 1:100 dilution of polyclonal guinea pig anti-insulin antibody (Gpx Insulin, Dako, Carpinteria, Calif.) and 1:100 dilution of secondary antibody conjugated to horse radish peroxidase (Guinea Pig Immunoglobulins HRP, Dako, Carpinteria, Calif.). Sections were briefly counterstained with hematoxylin and mounted for light microscopic examination.

With COc1cc2ncnc(Nc3ccc(O)cc3)c2cc1OC [WHI-P131, 4-(4′-hydroxyl-phenyl)-amino-6,7-dimethoxyquinazoline] the “Mean No. of Colonies/10^5 Cells” value (BT20 (Breast Cancer); BT20, 10 μM) was 3298 (2940, 3656), the “Mean No. of Colonies/10^5 Cells” value (BT20 (Breast Cancer); BT20, 100 μM) was 2190 (1632, 2748) and the inhibition at 10 µM (BT20 (Breast Cancer); Homo sapiens, BT-20, BT20, 10 μM) was 0%. The inhibition at 100 µM (BT20 (Breast Cancer); Homo sapiens, BT-20, BT20, 100 μM) was 18.2%, the “Mean No. of Colonies/10^5 Cells” value (DAUDI (B-ALL); DAUDI, 0.3 μM) was 2030 (1700, 2360) and the “Mean No. of Colonies/10^5 Cells” value (DAUDI (B-ALL); DAUDI, 1 μM) was 2136 (1568, 2704). For the same molecule, the “Mean No. of Colonies/10^5 Cells” value (DAUDI (B-ALL); DAUDI, 3 μM) was 1406 (988, 1824), the “Mean No. of Colonies/10^5 Cells” value (DAUDI (B-ALL); DAUDI, 10 μM) was 1149 (1054, 1244) and the “Mean No. of Colonies/10^5 Cells” value (DAUDI (B-ALL); DAUDI, 30 μM) was 29 (12, 46). It also gave an EC50 (DAUDI (B-ALL); Homo sapiens, DAUDI cells, read-out: EC50, inhibition of clonogenic growth) of 18.8 µM, an inhibition at 0.3 µM (DAUDI (B-ALL); Homo sapiens, DAUDI, 0.3 μM) of 48.6% and an inhibition at 1 µM (DAUDI (B-ALL); Homo sapiens, DAUDI, 1 μM) of 45.9%. The inhibition at 3 µM (DAUDI (B-ALL); Homo sapiens, DAUDI, 3 μM) was 64.4%, the inhibition at 10 µM (DAUDI (B-ALL); Homo sapiens, DAUDI, 10 μM) was 70.9% and the inhibition at 30 µM (DAUDI (B-ALL); Homo sapiens, DAUDI, 30 μM) was 98%. The “Mean No. of Colonies/10^5 Cells” value (HL-60 (AML)) was 1 (1,1), the inhibition at 100 µM (HL-60 (AML); Homo sapiens) was over 99.9% and the “Mean No. of Colonies/10^5 Cells” value (M24-MET (Melanoma); 0.3 μM) was 312 (238, 386). For the same molecule, the “Mean No. of Colonies/10^5 Cells” value (M24-MET (Melanoma); 1 μM) was 287 (157, 418), the “Mean No. of Colonies/10^5 Cells” value (M24-MET (Melanoma); 3 μM) was 390 (280, 500) and the “Mean No. of Colonies/10^5 Cells” value (M24-MET (Melanoma); 10 μM) was 301 (249, 353). The “Mean No. of Colonies/10^5 Cells” value (M24-MET (Melanoma); 30 μM) was 599 (534, 664), the inhibition at 0.3 µM (M24-MET (Melanoma); Homo sapiens, M24met, 0.3 μM) was 0% and the inhibition at 1 µM (M24-MET (Melanoma); Homo sapiens, M24met, 1 μM) was 0%. For the same molecule, the inhibition at 3 µM (M24-MET (Melanoma); Homo sapiens, M24met, 3 μM) was 0%, the inhibition at 10 µM (M24-MET (Melanoma); Homo sapiens, M24met, 10 μM) was 0% and the inhibition at 30 µM (M24-MET (Melanoma); Homo sapiens, M24met, 30 μM) was 0%. For the same molecule, the inhibition at 100 µM (MOLT-3 (T-ALL); Homo sapiens) was over 99.9%, the “Mean No. of Colonies/10^5 Cells” value (MOLT-3 (T-ALL)) was 1 (1, 1) and the “Mean No. of Colonies/10^5 Cells” value (RAMOS (B-ALL); 30 μM) was 2 (0, 4). The inhibition at 30 µM (RAMOS (B-ALL); Homo sapiens) was 99.8%, the “Mean No. of Colonies/10^5 Cells” value ([1]; 30 μM) was 838 (600, 1076) and the inhibition at 30 µM ([1]; Homo sapiens) was 0%. For the same molecule, the “apoptotic cell death of splenocytes (TUNEL-positive)” value (C57BL/6 splenocytes; 0.1 and 1 μg/ml) was “does not differ from control cells”, the “apoptotic cell death of splenocytes (TUNEL-positive)” value (C57BL/6 splenocytes; 10 and 100 μg/ml) was “significantly increased” and the diabetes incidence (NOD females; 20 mg/kg daily, till 18 wks of age) was 56%. For the same molecule, the “age at which mice started to develop diabetes” value (NOD females; 50 mg/kg daily from 5 wks, control 13 wks) was 22 wks, the diabetes incidence (NOD females; 50 mg/kg daily, 5 to 25 wks of age, at 25 wks) was 18% and the diabetes incidence (NOD females; 100 mg/kg, 'the first treatment', at 25 wks of age, p=0.007) was 9%. The diabetes incidence (NOD females; 100 mg/kg, 'the later one', at 25 wks of age, p=0.025) was 18%, the “age at which diabetes started” value (NOD females; 100 mg/kg, short course wks 5 to 9) was 10 wks and the diabetes incidence (NOD females; 100 mg/kg, short course wks 5 to 9, by 25 wks of age) was 83%. For the same molecule, the Insulitis score (NOD females; 100 mg/kg, treated from 5-25 wks of age, controls 1.43±0.15) was 0.86±0.12, the Insulitis score (NOD females; 100 mg/kg, treated from 10-25 wks of age) was 1.42±0.24 and the “diabetic mice post adoptive transfer” value (NOD-scid/scid females) was 8%. For the same molecule, the “IPGTT, islet function vs controls” value (C57BL/6 recipients; day 70) was “no significant difference in islet function”, the nonfasting blood glucose (C57BL/6 recipients; day 70 of treatment) was 124.6 ± 10.8 mg/dL and the “IPGTT, islet function vs controls” value (C57BL/6 recipients; day 180) was “not different”. For the same molecule, the “insulin expression in syngeneic grafts vs vehicle” value (C57BL/6 recipients; day 180, immunohistochemistry) was “comparable”, the “non-fasting blood glucose level” value (C57BL/6 recipients; day 180 post transplantation) was 115.2 ± 9.2 mg/dL and the “non-fasting blood glucose level vs vehicle control” value (C57BL/6 recipients; entire period of 180 days) was “did not differ”.
